# Data published in publication PMC4234457, “Primary porcine proximal tubular cells as an alternative to human primary renal cells in vitro: an initial characterization” (BMC Cell Biology, 2013).
# Counter-ions that a name gives are not always drawn. Like-named read-outs stand apart in the source and are kept apart here.
# Columns and labels:
# Oat1 or Oat3 = test: Transporter induction experiments (RT-PCR of transporter mRNA in PKC); assay type: cell-based, porcine
# Description: For transporter induction experiments, freshly isolated PKC cells were seeded (total of 2 × 10^4 cells cm^-2) on 6-well ThinCert PET tissue culture inserts in standard culture medium and medium was changed every 48 hours. […] After 48 hours of exposure, samples for RNA extraction were prepared by standard trypsin-EDTA treatment followed by washing with PBS. Resulting cell pellets were snap-frozen and stored at -80°C until use.
# Total RNA was prepared from cell pellets and minced pieces of tissue (rat kidney and porcine kidney cortex) via the phenol-chloroform method using Trizol (Invitrogen, Karlsruhe, Germany). Concentration and quality was estimated via 260/280 nm values. Representative samples were tested for RNA integrity via denaturing electrophoresis. cDNA was prepared using 1 μg total RNA, Oligo (dT)18 and M-MuLV reverse transcriptase according to manufacturer’s instructions. PCR was performed using 2 μl cDNA sample, 2 × PCR Master Mix, specific primers (Table 3). Amplification was performed with an initial denaturation step at 92°C for 3 min followed by 30 cycles of 94°C for 60 sec, 58°C for 60 sec and 72°C for 60 sec and a final extension step at 72°C for 7 min.
# PKC [1] = test: Inhibition of cellular PAH uptake in PKC; details: 50 μM PAH, inhibitor 1 mM, 10 min; for Reduction of PAH BBM uptake: Figure 3A
# Description: For transport studies, PKC were seeded (1 × 10^5 cells/cm^2) on 6-well PET filter inserts with 0.4 μm pore size. The use of filter inserts allows measurement of transport across the BLM (basolateral membrane) and the BBM (brushborder membrane) by addition of substrates to media in the lower and upper compartment, respectively. […] The cells were incubated at 37°C for the indicated times. […] Thereafter, cells were acidified with 1 M HCl and an aliquot was used for protein determination using the Bradford assay. 1 ml of medium from each compartment and of solubilized cells was placed into 10 ml scintillation cocktail and radioactivity was measured in a Beckman LS 6500 scintillation counter.
# [2] = tested on: primary porcine kidney cells (PKC); test: MTT reduction cytotoxicity assay in PKC; details: for EC50: read-out: EC50 (cytotoxicity), 1-500 μM, positive control
# Description: Cytotoxicity experiments using the MTT reduction assay as previously described, were conducted to estimate non-toxic concentrations for subsequent analyses. All chemicals and stock solutions (Tables 1 and 2) were sterilized by filtration (0.2 μm) prior to testing. […] Absorbance was read at 550 nm using a microplate reader (Infinite M200, Tecan, Crailsheim, Germany).
# Conversely, in the transport induction experiments (prolonged substrate exposure/low concentrations, Table 2) cytotoxicity was determined after 24, 48, 72 and 96 hours of exposure. All assays were performed with the respective vehicle controls (Tables 1 and 2) and cadmium chloride as positive control.
# Cytotoxicity data were calculated as means ± SEM from at least three independent replicate experiments conducted in technical duplicates, followed by a One-way ANOVA with a subsequent Dunnett’s multiple comparison test (P < 0.05).
# pOat3 = details: cited from earlier work; for Inhibitory effect on pOat3-mediated ES transport: oocytes
# hOAT3 = details: cited from earlier work
# OAT3 (SLC22A8) = tested on: OAT3 (SLC22A8); parameters: method as in supplement 1; details: Rat, cited from earlier work
# pOat1 = details: cited from earlier work; for Inhibition of pOat1-mediated PAH uptake: oocytes
# PKC [3] = test: Transport assays (kinetics): cellular uptake of radiolabelled PAH and MTX across BBM and BLM of PKC on filter inserts; assay type: in vitro ADME, porcine; details: for Km: confluent PKC, 30 min incubation, mean ± SEM, n = 3
# Description: For transport studies, tightness of the cellular monolayers was inspected microscopically before use. Additionally, radiolabelled substrates were measured in the both chambers (above and below the cell layer) to determine cell layer leakiness. In case of lacking or reduced tightness of the monolayer, very high counts (dpm) were measured in the respective opposite compartment. These resulting counts (dpm) were several-magnitudes greater than those that could have been expected from potential transepithelial transport. Data from cell preparations with such apparent cell layer leakiness were omitted from calculation.
# For kinetic data, raw transport data (dpm) were submitted to intra-assay normalization using the blanks described above and calculated using the following equation:
# meandpm×totalvolume/countedvolume×60sec×specificactivity×proteincontent×assaytime=substratepmol/mg×min
# [4] = tested on: primary human proximal tubular cells; parameters: method as in PMID 16997449; details: cited from earlier work
# hOAT1 = details: hOAT1, MTX; cited from earlier work
# hOAT4 = details: hOAT4, MTX; cited from earlier work
# hMRP4 = details: hMRP4, MTX; cited from earlier work
# [5] = PKC, 50 nM or 1 μM to basolateral compartment, 48 hours, RT-PCR
smiles,measurement,setting,value
O=C1OC(c2ccc(O)c(S(=O)(=O)O)c2)(c2ccc(O)c(S(=O)(=O)O)c2)c2c(Br)c(Br)c(Br)c(Br)c21 [bromosulphophthalein],Stimulatory effect on transporter mRNA expression,Oat1 or Oat3; [5],none of the tested substances showed any stimulatory effect
same,Reduction of PAH BBM uptake,PKC [1],up to 30%
[Cl][Cd][Cl] [cadmium chloride],Cytotoxicity on longer exposure,"[2]; PKC, MTT, exposure >48 hours (data not shown)",did not result in further increased cytotoxicity
same,EC50,"[2]; PKC, MTT, 24 hours of exposure",103 µM
same,EC50,"[2]; PKC, MTT, 48 hours of exposure",57.2 µM
C[C@]12CC[C@H](OS(=O)(=O)O)CC1=CC[C@@H]1[C@@H]2CC[C@]2(C)C(=O)CC[C@@H]12 [dehydroepi-androsteron sulfate],Stimulatory effect on transporter mRNA expression,Oat1 or Oat3; [5],none of the tested substances showed any stimulatory effect
same,Inhibitory effect on pOat3-mediated ES transport,pOat3,inhibitory effect
C[C@]12CC[C@@H]3c4ccc(OS(=O)(=O)O)cc4CC[C@H]3[C@@H]1CCC2=O [estrone sulfate],Km,"pOat3; pOat3 expressed in X. laevis oocytes, read-out: apparent Km",7.8 ± 1.3 µM
same,Km,"hOAT3; hOAT3, ES, read-out: Km",3.1 to 9.5 µM
same,Km,"OAT3 (SLC22A8); ref supplement 1, read-out: KM (ES)",2.3 to 5.3 µM
same,Inhibition of PAH uptake from either direction (BBM or BLM),PKC [1],not able to inhibit PAH uptake
O=C(O)CCCC(=O)O [glutarate],Inhibition of pOat1-mediated PAH uptake,pOat1; 0.5 mM,could be inhibited
same,Inhibitory effect on pOat3-mediated ES transport,pOat3,inhibitory effect
CN(Cc1cnc2nc(N)nc(N)c2n1)c1ccc(C(=O)N[C@@H](CCC(=O)O)C(=O)O)cc1 [methotrexate],Cellular uptake,"PKC [3]; PKC, radiolabelled substrate",negligible
same,Km,"[4]; human kidney cells (HKC), hOAT1-associated, read-out: Km of MTX transport across the BBM",80.4 ± 3.4 µM
same,Km,"[4]; human kidney cells (HKC), hOAT1-associated, read-out: Km of MTX transport across the BLM",28.5 ± 1.1 µM
same,Km,hOAT1,554 to 724 µM
same,Km,"hOAT3; hOAT3, MTX, read-out: Km",10.9 to 21.1 µM
same,Km,hOAT4,17.8 µM
same,Km,hMRP4,220 to 1300 µM
same,Reduction of PAH BBM uptake,PKC [1],up to 30%
C[C@@H]1Cc2c(Cl)cc(C(=O)N[C@@H](Cc3ccccc3)C(=O)O)c(O)c2C(=O)O1 [ochratoxin A],Reduction of PAH BBM uptake,PKC [1],up to 30%
Nc1ccc(C(=O)NCC(=O)O)cc1 [p-aminohippuric acid],Time to saturation of PAH uptake,"PKC [3]; PKC, 50 μM substrate, Figure 2B",5 to 10 min
same,BBM uptake compared to BLM uptake,"PKC [3]; PKC, PAH uptake, Figure 2A",about 3 times
same,Km,"PKC [3]; basolateral membrane, read-out: Km of PAH uptake across BLM",187 ± 70.2 µM
same,Km,"PKC [3]; brushborder membrane, read-out: Km of PAH uptake across BBM",58.8 ± 12.6 µM
same,Km,"[4]; primary human proximal tubular cells, read-out: BBM Km of PAH uptake",36.6 ± 1.2 µM
same,Km,"[4]; primary human proximal tubular cells, read-out: BLM Km of PAH uptake",57.5 ± 4.1 µM
same,Km,"pOat1; OAT1 (SLC22A6), Pig, ref supplement 1, 2, read-out: KM (PAH)",3.7 µM
same,Affinity of the other pOat1 variant,pOat1; one pOat1 splice variant expressed in Xenopus laevis oocytes,did not show any affinity
same,Km,"pOat1; pOat1 variant expressed in Xenopus laevis oocytes, read-out: apparent Km",3.75 ± 1.6 µM
same,Km,"hOAT3; OAT3 (SLC22A8), Human, ref supplement 1, read-out: KM (PAH)",50 to 100 µM
same,Km,"OAT3 (SLC22A8); ref supplement 1, read-out: KM (PAH)",60 to 65 µM
CCCN(CCC)S(=O)(=O)c1ccc(C(=O)O)cc1 [probenecid],Inhibition of pOat1-mediated PAH uptake,pOat1; 1 mM,could be inhibited
same,Inhibitory effect on pOat3-mediated ES transport,pOat3,inhibitory effect
same,Inhibition of PAH uptake from either direction (BBM or BLM),PKC [1],did not show any inhibitory effect
C[C@H](CCC(=O)NCCS(=O)(=O)O)[C@H]1CC[C@H]2[C@@H]3[C@H](O)C[C@@H]4C[C@H](O)CC[C@]4(C)[C@H]3C[C@H](O)[C@]12C [taurocholic acid],Significant effects (cytotoxicity of potential transporter inducers),[2],no
same,Stimulatory effect on transporter mRNA expression,Oat1 or Oat3,none of the tested substances showed any stimulatory effect
N[C@@H](Cc1cc(I)c(Oc2ccc(O)c(I)c2)c(I)c1)C(=O)O [triiodothyronine],Stimulatory effect on transporter mRNA expression,Oat1 or Oat3; [5],none of the tested substances showed any stimulatory effect
